The target of experiment [1] is isolated recombinant JAK1 kinase domain (Homo sapiens (Human), UniProt P23458). Put plainly: JAK1 enzyme assay (Caliper LabChip, Ki). As to conditions: isolated recombinant JAK1 kinase domain, 1.5 nM enzyme, ATP 25 μM. The class given is biochemical.
Experiment [2] concerns the target isolated recombinant JAK2 kinase domain (Homo sapiens (Human), UniProt O60674). The experiment can be described thus: JAK2 enzyme assay (Caliper LabChip, Ki). The class given is biochemical. The conditions noted are these: isolated recombinant JAK2 kinase domain, 0.2 nM enzyme, ATP 25 μM.

Consider 22 compounds from patent US10189836B2, “Therapeutic compounds, compositions and methods of use thereof” (Genentech, Inc., priority 2015, dated 2019).

Sequence of isolated recombinant JAK1 kinase domain (P23458 875-1153): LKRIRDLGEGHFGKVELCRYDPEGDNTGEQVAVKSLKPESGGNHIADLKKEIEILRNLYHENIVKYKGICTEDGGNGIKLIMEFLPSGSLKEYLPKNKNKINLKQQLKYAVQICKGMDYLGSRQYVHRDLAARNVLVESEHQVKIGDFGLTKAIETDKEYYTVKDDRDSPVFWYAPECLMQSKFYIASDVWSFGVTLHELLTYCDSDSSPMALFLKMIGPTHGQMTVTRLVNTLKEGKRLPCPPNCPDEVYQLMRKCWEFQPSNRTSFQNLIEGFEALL
Sequence of isolated recombinant JAK2 kinase domain (O60674 849-1124): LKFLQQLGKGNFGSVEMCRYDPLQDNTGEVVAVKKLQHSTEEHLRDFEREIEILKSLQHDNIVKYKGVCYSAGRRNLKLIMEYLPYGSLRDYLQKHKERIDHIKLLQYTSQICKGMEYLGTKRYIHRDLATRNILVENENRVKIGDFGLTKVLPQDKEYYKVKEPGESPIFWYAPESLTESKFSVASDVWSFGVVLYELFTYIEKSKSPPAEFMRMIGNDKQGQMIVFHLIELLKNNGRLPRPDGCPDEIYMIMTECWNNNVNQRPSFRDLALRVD

As usually defined, the Ki is the dissociation constant of the complex between target and ligand, obtained from inhibition or displacement. For the compound `CC(C(=O)N1CCN(C)CC1)n1cc(Nc2nc3c(N4CC5CCC(C4)N5C(=O)CCC(F)(F)F)cccn3n2)cn1` (centres unmarked) [Example 104, 4,4,4-trifluoro-1-[3-[2-[[1-[1-methyl-2-(4-methylpiperazin-1-yl)-2-oxo-ethyl]pyrazol-4-yl]amino]-[1,2,4]triazolo[1,5-a]pyridin-8-yl]-3,8-diazabicyclo[3.2.1]octan-8-yl]butan-1-one], the figures for the inhibition constant (Ki) in experiment [1] and in experiment [2] were 1.7 nM and 0.8 nM, respectively.
For `CC(C(=O)N1CCN(C)CC1)n1cc(Nc2nc3c(N4CC5CCCC(C4)N5C(=O)CCC(F)(F)F)cccn3n2)cn1` (centres unmarked) [Example 105, 4,4,4-trifluoro-1-[3-[2-[[1-[1-methyl-2-(4-methylpiperazin-1-yl)-2-oxo-ethyl]pyrazol-4-yl]amino]-[1,2,4]triazolo[1,5-a]pyridin-8-yl]-3,9-diazabicyclo[3.3.1]nonan-9-yl]butan-1-one] the same measures were 1 nM and 0.8 nM.
For `CC(C(=O)N1CCN(C)CC1)n1cc(Nc2nc3c(N4CC5CCCC(C4)N5C(=O)CCC(F)(F)F)cccn3n2)cn1` (centres unmarked) [Example 106, 4,4,4-trifluoro-1-[3-[2-[[1-[1-methyl-2-(4-methylpiperazin-1-yl)-2-oxo-ethyl]pyrazol-4-yl]amino]-[1,2,4]triazolo[1,5-a]pyridin-8-yl]-3,9-diazabicyclo[3.3.1]nonan-9-yl]butan-1-one] the same measures were 1.6 nM and 0.7 nM.
For `CSc1ccc(S(=O)(=O)N2C3CCC2CN(c2cccn4nc(Nc5cnn(CC(=O)N6CCN(C)CC6)c5)nc24)C3)cc1` [Example 107, 1-(4-methylpiperazin-1-yl)-2-[4-[[8-[8-(4-methylsulfanylphenyl)-sulfonyl-3,8-diazabicyclo[3.2.1]octan-3-yl]-[1,2,4]triazolo[1,5-a]pyridin-2-yl]amino]pyrazol-1-yl]ethanone] the same measures were 0.4 nM and 0.8 nM.
In the case of `CN1CCN(C(=O)Cn2cc(Nc3nc4c(N5CC6CCC(C5)N6S(=O)(=O)Cc5ccccc5)cccn4n3)cn2)CC1` [Example 108, 2-[4-[[8-(8-benzylsulfonyl-3,8-diazabicyclo[3.2.1]octan-3-yl)-[1,2,4]triazolo[1,5-a]pyridin-2-yl]amino]pyrazol-1-yl]-1-(4-methylpiperazin-1-yl)ethanone], the Ki in experiment [1] worked out at 1 nM; in experiment [2], 2.7 nM.
For `CN1CCN(C(=O)Cn2cc(Nc3nc4c(N5CC6CCC(C5)N6CC5(CS(C)(=O)=O)CC5)cccn4n3)cn2)CC1` [Example 109, 1-(4-methylpiperazin-1-yl)-2-[4-[[8-[8-([1-(methylsulfonylmethyl)cyclopropyl]methyl]-3,8-diazabicyclo[3.2.1]octan-3-yl]-[1,2,4]triazolo[1,5-a]pyridin-2-yl]amino]pyrazol-1-yl]ethanone] the same measures were 4.8 nM and 7 nM.
For `CN1CCN(C(=O)Cn2cc(Nc3nc4c(N5CC6CCC(C5)N6C(=O)NCC(F)(F)F)cccn4n3)cn2)CC1` [Example 110, 3-[2-[[1-[2-(4-methylpiperazin-1-yl)-2-oxo-ethyl]pyrazol-4-yl]amino]-[1,2,4]triazolo[1,5-a]pyridin-8-yl]-N-(2,2,2-trifluoroethyl)-3,8-diazabicyclo[3.2.1]octane-8-carboxamide] the same measures were 0.9 nM and 3.4 nM.
For `CN1CCN(C(=O)Cn2cc(Nc3nc4c(N5CC6CCC(C5)N6S(=O)(=O)c5ccccc5Cl)cccn4n3)cn2)CC1` [Example 111, 2-[4-[[8-[8-(2-chlorophenyl)sulfonyl-3,8-diazabicyclo[3.2.1]octan-3-yl]-[1,2,4]triazolo[1,5-a]pyridin-2-yl]amino]pyrazol-1-yl]-1-(4-methylpiperazin-1-yl)ethanone] the same measures were 0.5 nM and 0.5 nM.
As for `CN1CCN(C(=O)Cn2cc(Nc3nc4c(N5CC6CCC(C5)N6S(=O)(=O)c5cccs5)cccn4n3)cn2)CC1` [Example 112, 1-(4-methylpiperazin-1-yl)-2-[4-[[8-[8-(2-thienylsulfonyl)-3,8-diazabicyclo[3.2.1]octan-3-yl]-[1,2,4]triazolo[1,5-a]pyridin-2-yl]amino]pyrazol-1-yl]ethanone], the Ki in experiment [1] turned out to be 0.5 nM; in experiment [2], 0.7 nM.
Turning to `CN1CCN(C(=O)Cn2cc(Nc3nc4c(N5CC6CCC(C5)N6c5ccc(Cl)cc5)cccn4n3)cn2)CC1` [Example 113, 2-[4-[[8-[8-(4-chlorophenyl)-3,8-diazabicyclo[3.2.1]octan-3-yl]-[1,2,4]triazolo[1,5-a]pyridin-2-yl]amino]pyrazol-1-yl]-1-(4-methylpiperazin-1-yl)ethanone], the inhibition constant Ki in experiment [1] worked out at 0.2 nM; in experiment [2] it was 0.3 nM.
For `CN1CCN(C(=O)Cn2cc(Nc3nc4c(N5CC6CCC(C5)N6C(=O)c5ccccc5Cl)cccn4n3)cn2)CC1` [Example 114] the same measures were 1.7 nM and 4.8 nM.
The corresponding values for `CSc1ccccc1C(=O)N1C2CCC1CN(c1cccn3nc(Nc4cnn(CC(=O)N5CCN(C)CC5)c4)nc13)C2` [Example 115] are 1 nM and 2.1 nM.
For `CN1CCN(C(=O)Cn2cc(Nc3nc4c(N5CC6CCC(C5)N6C(=O)C5(C#N)CCC5)cccn4n3)cn2)CC1` [Example 116, 1-[3-[2-[[1-[2-(4-methylpiperazin-1-yl)-2-oxo-ethyl]pyrazol-4-yl]amino]-[1,2,4]triazolo[1,5-a]pyridin-8-yl]-3,8-diazabicyclo[3.2.1]octane-8-carbonyl]cyclobutane-carbonitrile] the same measures were 2.5 nM and 3.5 nM.
As for `CCc1cnn([C@@]2(CC#N)[C@@H]3CC[C@H]2CN(c2cccn4nc(Nc5cnn(CC(=O)N6CCN(C)CC6)c5)nc24)C3)c1` [Example 117, 2-[(1R,5S)-8-(4-ethylpyrazol-1-yl)-3-[2-[[1-[2-(4-methylpiperazin-1-yl)-2-oxo-ethyl]pyrazol-4-yl]amino]-[1,2,4]triazolo[1,5-a]pyridin-8-yl]-3-azabicyclo[3.2.1]octan-8-yl]acetonitrile], the Ki is 18.3 nM in experiment [1] and 24.2 nM in experiment [2].
With `CN1CCN(C(=O)Cn2cc(Nc3nc4c(N5CC6CCC(C5)C6=CC#N)cccn4n3)cn2)CC1` [Example 118, 2-[3-[2-[[1-[2-(4-methylpiperazin-1-yl)-2-oxo-ethyl]pyrazol-4-yl]amino]-[1,2,4]triazolo[1,5-a]pyridin-8-yl]-3-azabicyclo[3.2.1]octan-8-ylidene]acetonitrile], the Ki in experiment [1] worked out at 0.5 nM; in experiment [2] it was 1.5 nM.
As for `N#CC1(CNC2CCN(C(=O)Cn3cc(Nc4nc5c(N6CC7CCC(C6)N7C(=O)N6CC(C(F)(F)F)C6)cccn5n4)cn3)CC2)CC1` [Example 119, 1-[[[1-[2-[4-[[8-[8-[3-(trifluoromethyl)azetidine-1-carbonyl]-3,8-diazabicyclo[3.2.1]octan-3-yl]-[1,2,4]triazolo[1,5-a]pyridin-2-yl]amino]pyrazol-1-yl]acetyl]-4-piperidyl]amino]methyl] cyclopropanecarbonitrile], the Ki in experiment [1] and in experiment [2] was 0.8 nM in each case.
On to `CC(F)(F)CNC1CCN(C(=O)Cn2cc(Nc3nc4c(N5CC6CCC(C5)N6C(=O)N5CC(C(F)(F)F)C5)cccn4n3)cn2)CC1` [Example 120, 1-[4-(2,2-difluoropropylamino)-1-piperidyl]-2-[4-[[8-[8-[3-(trifluoromethyl)azetidine-1-carbonyl]-3,8-diazabicyclo[3.2.1]octan-3-yl]-[1,2,4]triazolo[1,5-a]pyridin-2-yl]amino]pyrazol-1-yl]ethanone], for which the inhibition constant Ki in experiment [1] worked out at 0.6 nM; in experiment [2] it was 0.7 nM.
Take `O=C(Cn1cc(Nc2nc3c(N4CC5CCC(C4)N5C(=O)N4CC(C(F)(F)F)C4)cccn3n2)cn1)N1CCC(CN2CCOCC2)CC1` [Example 121, 1-[4-(morpholinomethyl)-1-piperidyl]-2-[4-[[8-[8-[3-(trifluoromethyl)azetidine-1-carbonyl]-3,8-diazabicyclo[3.2.1]octan-3-yl]-[1,2,4]triazolo[1,5-a]pyridin-2-yl]amino]pyrazol-1-yl]ethanone]: the inhibition constant (Ki) in experiment [1] and in experiment [2] was 0.7 nM each time.
As for `CN1CCN(C(=O)Cn2cc(Nc3nc4c(N5CC6CCCC(C5)N6C(=O)N5CC(C(F)(F)F)C5)cccn4n3)cn2)CC1` [Example 122, 1-(4-methylpiperazin-1-yl)-2-[4-[[8-[9-[3-(trifluoromethyl)azetidine-1-carbonyl]-3,9-diazabicyclo[3.3.1]nonan-3-yl]-[1,2,4]triazolo[1,5-a]pyridin-2-yl]amino]pyrazol-1-yl]ethanone], the figures for the inhibition constant Ki in experiment [1] and in experiment [2] were 0.4 nM and 0.3 nM, respectively.
With `CC(C(=O)N1CCN(C)CC1)n1cc(Nc2nc3c(N4CC5CCC(C4)N5C(=O)C4CC(C(F)(F)F)C4)cccn3n2)cn1` (centres unmarked) [Example 123, 1-(4-methylpiperazin-1-yl)-2-[4-[[8-[8-(3-(trifluoromethyl)-cyclobutanecarbonyl]-3,8-diazabicyclo[3.2.1]octan-3-yl]-[1,2,4]triazolo[1,5-a]pyridin-2-yl]amino]pyrazol-1-yl]propan-1-one], the inhibition constant Ki in experiment [1] and in experiment [2] was 0.5 nM each time.
With `CC(C(=O)N1CCN(C)CC1)n1cc(Nc2nc3c(N4CC5CCC(C4)N5C(=O)C4CC(C(F)(F)F)C4)cccn3n2)cn1` (centres unmarked) [Example 124, 1-(4-methylpiperazin-1-yl)-2-[4-[[8-[8-(3-(trifluoromethyl)-cyclobutanecarbonyl]-3,8-diazabicyclo[3.2.1]octan-3-yl]-[1,2,4]triazolo[1,5-a]pyridin-2-yl]amino]pyrazol-1-yl]propan-1-one], the Ki was 1.9 nM in experiment [1] and 3.7 nM in experiment [2].
The corresponding values for `CC(C(=O)N1CCN(C)CC1)n1cc(Nc2nc3c(N4CC5CCC(C4)N5C(=O)C4CC(C(F)(F)F)C4)cccn3n2)cn1` (centres unmarked) [Example 125, 1-(4-methylpiperazin-1-yl)-2-[4-[[8-[8-(3-(trifluoromethyl)-cyclobutanecarbonyl]-3,8-diazabicyclo[3.2.1]octan-3-yl]-[1,2,4]triazolo[1,5-a]pyridin-2-yl]amino]pyrazol-1-yl]propan-1-one] are 0.6 nM and 0.4 nM.
